According to article PMC9469084, “Unravelling the pharmacokinetics of aflatoxin B1: In vitro determination of Michaelis–Menten constants, intrinsic clearance and the metabolic contribution of CYP1A2 and CYP3A4 in pooled human liver microsomes” (Frontiers in Microbiology, 2022):
Where “and” joins values, the source holds several entries; their conditions need not be identical. Identical values can stand only once. Like-named read-outs stand apart in the source and are kept apart here. Marks after values point to notes of the source that are not given here.

Tests used:
[1] = system: CYP3A4 (MDZ), CYP1A2 (PH); test: in vitro; details: human, pH 7.4; for microsomal CLint: microsomes
Description: (§1) A 1.15% KCl solution was made in HPLC grade water and stored at 4°C. HLM (20 mg/ml in 250 mM sucrose) were diluted in 1.15% KCl to achieve a final protein concentration of 0.1; 0.25; 0.5; 0.75 and 1 mg/ml in the samples. The stop reagent was made with 300 μl FA, 5,500 μl ACN and Ultrapure water and contained the internal standards (IS; 0.072 μM of CHL and 0.12 μg/ml of ZAN).
(§2) Samples were prepared partially based on [Schelstraete et al. (2019a],[b)]. […] Next, 50 μl of a freshly prepared NADPH.4Na solution was added. After an incubation of 3 min, 50 μl of diluted HLM was added and they were placed back on the thermoshaker TS-100 (Biosan, Geraardsbergen, Belgium) with a rotation speed of 300 rpm and at a temperature of 37°C. After the indicated time (i.e., 5, 10, 20, 30 and 45 min), 25 μl of an ice cold stop reagent with IS, i.e., CHL for CYP probes and ZAN for AFB1, was added. For protein precipitation, 125 μl of TFA was added. Samples were centrifuged at 16,000×g for 20 min at 4°C. The centrifugal filters were discarded and the supernatant was added to 1 ml of a 0.2 M phosphate buffer. Next, 7 ml of ethyl acetate was added in order to perform a liquid–liquid extraction (LLE). Samples were extracted during 20 min on an Agitelec shaker at room temperature. For phase separation, samples were centrifuged at 2,000× g for 10 min. Subsequently, the organic phase was transferred in glass tubes and evaporated under a gentle nitrogen stream at 40°C (±5°C) using a Turbovap (Biotage, Charlotte, United States). After evaporation, samples were kept at −20°C until further analysis. Upon analysis, 250 μl of a 60/40 mobile phase A (MP A; H2O/MeOH/acetic acid (94/5/1, v/v/v) + 5 mM ammonium acetate)/mobile phase B (MP B; H2O/MeOH/acetic acid (2/97/1, v/v/v) + 5 mM ammonium acetate) mixture was added. After thorough vortexing and centrifuging for 10 min at 1,000× g, the samples were transferred to an autosampler vial. An aliquot of 5 μl was injected into the ultrahigh performance liquid chromatography (UPLC) - XEVO TQ-S (LC–MS/MS) equipment using an in-house developed and validated method.
(§3) A Waters Acquity class I UPLC system coupled to a XEVO TQ-S tandem quadrupole mass spectrometer (MS) from Waters (Milford, MA, United States) was used for the detection and quantification. A Charged Surface Hybrid (CSH) C18 column (1.7 μm 2.1 × 100 mm) with Guard column was used for chromatographic separation. The column temperature was set at 30°C; the sample temperature at 10°C. The MP was used at a flow rate of 0.250 ml/min following a gradient program (Table 1). The total duration for a single run was 12 min. The MS was operated in the electrospray positive mode (ESI+) with multiple reaction monitoring (MRM). Source temperature and desolvation temperature were set at 130°C and 200°C. The cone gas flow was set at 150 L/h, the desolvation gas flow at 550 L/h. Data was processed using Masslynx® and Targetlynx® software from Micromass (Manchester, United Kingdom). Data analysis was performed by transferring Targetlynx® data to Microsoft Excel and Sigmaplot version 14.5. For AFB1, substrate depletion was measured. Nonlinear regression on sigmoidal plots where the initial depletion rate (kdep) was plotted against AFB1 concentrations on a linear-log plot, was performed using Excel Solver ([Youdim and Dodia, 2010]).
(§4) Substrate work solutions of AFB1 were made to achieve sample concentrations from 0.5 μM to 50 μM, for the HLM experiments. For rhCYP an extra AFB1 sample concentration of 100 μM was implemented. HLM (20 mg/ml in 250 mM sucrose) were diluted in 1.15% KCl to achieve a final protein concentration of 0.25 and 0.5 mg/ml in the samples, as based on previous linearity experiments. The stop reagents were those described in 2.1.2.
(§5) For CYP3A4 rhCYP experiments, 50 μl of diluted supersomes at 150 pmol/ml were used instead of HLM, achieving a final concentration of 30 pmol/ml.

[2] = system: pooled human liver microsomes; test: in vitro
Description: as §1, §2, §3, §4, §5

CYP3A4 [3] = target: CYP3A4 (Homo sapiens, UniProt P08684); test: in vitro
Description: as §4
(§6) For CYP3A4 rhCYP experiments, 50 μl of diluted supersomes at 150 pmol/ml were used instead of HLM, achieving a final concentration of 30 pmol/ml. For CYP1A2 rhCYP experiments, 50 μl of diluted EasyCYP LR bactosomes at 50 pmol/ml were used, achieving a final concentration of 10 pmol/ml.
(§7) The same equipment, settings and procedures were used as explained in Section “LC–MS/MS (linearity experiments).” Data analysis was performed by transferring Targetlynx® data to Microsoft® Excel. Metabolite formation velocity versus substrate concentration figures were plotted with error bars, Sigmaplot version 14.5 was used for determining the Michaelis–Menten constant (Km) and maximum velocity (Vmax) by performing nonlinear regression on the figures. For AFB1 substrate depletion was measured. Nonlinear regression on sigmoidal plots, where the initial depletion rate (kdep) was plotted against AFB1 concentrations on a linear-log plot, was performed using Excel Solver ([Youdim and Dodia, 2010]).
(§8) The CLH,u,int is multiplied by the AAF, leading to an AAF corrected CLH,u,int (CLH,u,int,AAF). The obtained Km and Vmax values of the CYP probes from rhCYPs were used to calculate intersystem extrapolation factors (ISEFs) for both Vmax and CLint (Equations 7 and 8).
(§9) (7) VmaxISEF=Vmax,HLM/Vmax,rhCYP∗CYPabundancepmolP450/mg
(§10) (8) CLintISEF=Vmax,HLM/Km,HLM∗10^−6/Vmax,rhCYP/Km,rhCYP∗10^−6∗CYPabundancepmolP450/mg
(§11) CLH,u,int,AAF values of AFB1 from rhCYP experiments were multiplied with the CLint ISEF, resulting in an ISEF corrected CLH,u,int,AAF (CLH,u,int,AAF,ISEF). […] Equation 10 presents the extrapolation to the whole liver hepatic blood clearance from rhCYP experiments. The hepatic blood clearance (CLH,B) was multiplied by the blood/plasma ratio (B:P) to obtain the whole liver hepatic plasma clearance, CLH,P.
(§12) (10) CLH,BL/h=QH∗fu,b∗CLH,u,int,AAF,ISEF/QH+fu,b∗CLH,u,int,AAF,ISEF
(§13) Next, Km and Vmax experiments were performed in recombinant enzyme systems. […] For AFB1, where substrate depletion was analyzed, kdep was determined for different substrate concentrations in supersomes and bactosomes which was plotted against AFB1 substrate concentrations on a log-scale (Figures 3E,F). By dividing the theoretical maximal kdep by the protein concentration, the CLint was achieved from which the Vmax could be determined ([Youdim and Dodia, 2010]).

[4] = human, microsomes
[5] = cited from earlier work
human liver microsomes [6] = details: cited from earlier work
CYP1A2 [7] = target: T1, CYP1A2 (Homo sapiens, UniProt P05177)
Description: as §4, §6, §7, §8, §9, §10, §11, §12, §13

CYP3A4/3A5 = format: in vitro ADME, human
human liver microsomes [8] = test: AFB1 inhibition assays in HLM, both contributions combined; format: in vitro ADME
CYP3A4 [9] = details: cited from earlier work
CYP3A5 = details: cited from earlier work
CYP3A7 = details: cited from earlier work
[10] = cited from earlier work; remark: listed apart in the source
CYP1A2 [11] = target: T1, CYP1A2; test: AFB1 inhibition assay in HLM with α-naphthoflavone; format: in vitro ADME; set-up: tissue Corning; host or cells: human liver microsomes, UltraPool HLM 150, mixed gender
CYP1A2 [12] = target: T1, CYP1A2; set-up: tissue Corning; host or cells: human liver microsomes, UltraPool HLM 150, mixed gender; details: cited from earlier work
[13] = HLM pool of 16.0 donors, ref Kazmi, 2015

T1 sequence (P05177 whole entry): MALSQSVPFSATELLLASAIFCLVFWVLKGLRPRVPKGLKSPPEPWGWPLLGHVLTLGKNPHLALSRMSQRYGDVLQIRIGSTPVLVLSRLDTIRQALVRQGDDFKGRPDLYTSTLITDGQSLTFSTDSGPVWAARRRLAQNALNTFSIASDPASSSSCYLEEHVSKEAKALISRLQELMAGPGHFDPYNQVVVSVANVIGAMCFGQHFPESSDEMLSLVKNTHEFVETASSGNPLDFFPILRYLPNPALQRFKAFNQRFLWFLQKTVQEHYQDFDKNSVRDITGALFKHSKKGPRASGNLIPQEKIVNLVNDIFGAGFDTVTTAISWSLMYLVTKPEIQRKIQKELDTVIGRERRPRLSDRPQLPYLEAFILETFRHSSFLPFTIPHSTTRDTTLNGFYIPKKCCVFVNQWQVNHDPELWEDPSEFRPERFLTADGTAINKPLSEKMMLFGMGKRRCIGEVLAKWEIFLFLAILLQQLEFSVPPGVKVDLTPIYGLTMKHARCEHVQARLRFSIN
Chain of CYP3A4 (Homo sapiens, UniProt P08684) (P08684 2-503): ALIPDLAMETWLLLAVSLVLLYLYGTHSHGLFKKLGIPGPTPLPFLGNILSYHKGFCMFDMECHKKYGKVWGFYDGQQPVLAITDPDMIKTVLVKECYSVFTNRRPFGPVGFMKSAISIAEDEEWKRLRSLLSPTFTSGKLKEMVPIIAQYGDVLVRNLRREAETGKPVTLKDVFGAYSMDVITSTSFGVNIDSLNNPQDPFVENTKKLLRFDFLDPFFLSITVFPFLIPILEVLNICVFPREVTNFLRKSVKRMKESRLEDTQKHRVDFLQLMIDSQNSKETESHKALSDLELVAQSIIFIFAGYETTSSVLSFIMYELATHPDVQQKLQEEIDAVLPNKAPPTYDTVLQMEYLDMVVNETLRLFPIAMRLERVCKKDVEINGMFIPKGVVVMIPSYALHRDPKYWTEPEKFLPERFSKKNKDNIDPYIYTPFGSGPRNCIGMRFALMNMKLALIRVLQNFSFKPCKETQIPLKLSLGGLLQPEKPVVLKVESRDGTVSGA

Cc1ncc2n1-c1ccc(Cl)cc1C(c1ccccc1F)=NC2 [MDZ, midazolam, reference compound]
microsomal CLint [1]: 445 µL/min/mg | Km [1]: 2.15 µM | CLH,B calculated (hepatic blood clearance, AAF corrected) ([2]; human, pH 7.4): 44.1 L/h | CLH,p calculated (hepatic plasma clearance) ([2]; human, pH 7.4): 26.6 L/h | CLH,u,int (whole liver) ([2]; human, pH 7.4): 1,941 L/h | calculated CLH,B compared to literature ([2]; human, pH 7.4): ≤ 1.00 fold | Km (CYP3A4 [3]; human): 3.2 µM | Vmax (CYP3A4 [3]; human, pH 7.4): 14.1 pmol/min/pmol P450 | fraction unbound [4]: 0.907 | CLH,p literature ([5]; ref Persson et al. (1987)): 29.0 L/h^d | CLH,u,int (whole liver) (human liver microsomes [6]): 2,700 L/h

aflatoxin B1 [AFB1]
CLH,B calculated (hepatic blood clearance, AAF corrected), CYP3A4 [2]: 40.0 L/h and 40.0^CYP3A4 L/h | CLH,p calculated, CYP1A2 [2]: 39.6 L/h | CLH,p calculated, CYP3A4 [2]: 41.2 L/h | CLH,u,int (whole liver) [2]: 1,190 L/h | CLH,u,int (whole liver), CYP1A2 [2]: 583^CYP1A2 L/h | CLH,u,int (whole liver), CYP3A4 [2]: 535^CYP3A4 L/h | CLH,u,int,AAF [2]: 450^CYP3A4 L/h and 420^CYP1A2 L/h | Km [2]: 40.9 µM | CLint,in vitro ([2]; human): 282 µL/min/mg | CLH,B calculated (hepatic blood clearance, ISEF and AAF corrected) (CYP3A4 [3]): 47.7 L/h | CLH,B from supersomes relative to CLH,B from HLM (CYP3A4) (CYP3A4 [3]): 1.19 fold | CLH,p calculated (CYP3A4 [3]): 49.1 L/h | CLH,u,int (CYP3A4 [3]): 755 L/h | CLH,u,int,AAF (CYP3A4 [3]): 634 L/h | Km (CYP3A4 [3]): 49.6 µM | Vmax,ISEF (CYP3A4 [3]): 5.97 nmol/mg/min | Vmax,ISEF (ISEF corrected Vmax) (CYP3A4 [3]): 43.6 pmol/min/pmol P450 | CLH,B calculated (hepatic blood clearance, ISEF and AAF corrected) (CYP1A2 [7]): 56.1 L/h | CLH,B from EasyCYP bactosomes relative to CLH,B from HLM (CYP1A2) (CYP1A2 [7]): 1.46 fold | CLH,p calculated (CYP1A2 [7]): 57.8 L/h | CLH,u,int (CYP1A2 [7]): 1,295 L/h | CLH,u,int,AAF (CYP1A2 [7]): 932 L/h | Km (CYP1A2 [7]): 58.2 µM | Vmax,ISEF (CYP1A2 [7]): 14.7 nmol/mg/min | CYP3A4/5 contribution to AFB1 metabolism (CYP3A4/3A5): 45% | contribution ascribed to other enzymes, expectedly CYP2A13 (human liver microsomes [8]): 6.0% | sum of CYP3A4/5 and CYP1A2 contributions (human liver microsomes [8]): 94% | CYP3A4 contribution (CYP3A4 [9]): 79–95% | Km (CYP3A4 [9]; read-out: Km for the AFBO formation via CYP3A4): 133 µM | Km (CYP3A4 [9]; read-out: Km for the AFM1 formation via CYP3A4): 139 µM | CYP3A5 contribution (CYP3A5): 4–15% | CYP3A7 contribution (CYP3A7): 5–7% | fu,B (free fraction in blood) [10]: 0.160^b | Vmax (AFBO or AFQ1 formation), range (human liver microsomes [6]): 236–11,281 pmol/(mg.min) | Km (human liver microsomes [6]; read-out: Km (AFBO or AFQ1 formation), range): 90 to 1720 µM | CYP1A2 contribution to AFB1 metabolism (CYP1A2 [11]): 49% | CYP1A2 contribution (CYP1A2 [12]): 1–5% | contribution of CYP1A2 (CYP1A2 [12]): 95% | Km (CYP1A2 [12]; read-out: Km for the AFBO formation via CYP1A2): 41 µM | Km (CYP1A2 [12]; read-out: Km for the AFM1 formation via CYP1A2): 29 µM

CCOc1ccc(NC(C)=O)cc1 [PH, phenacetin, reference compound]
microsomal CLint [1]: 21.4 µL/min/mg | Km [1]: 40 µM | CLH,p calculated (hepatic plasma clearance) ([2]; HLM, probe substrates, CLH,B x B:P): 21.9 L/h | CLH,B calculated (hepatic blood clearance, AAF corrected) ([2]; HLM, probe substrates, QH 90 L/h, Equation 9): 21.7 L/h | calculated CLH,B compared to literature ([2]; HLM, MDZ vs Kazmi, 2015, PH vs Shibata et al., 2002): ≤ 1.04 fold | CLH,u,int (whole liver) ([2]; HLM, MPPGL 40 mg/g, LW 1,650 g, Equation 4): 84.74 L/h | Vmax (CYP1A2 [7]; CYP1A2 bactosomes): 11.6 pmol/min/pmol P450 | CLH,B literature (in vivo human hepatic blood clearance) ([5]; ref Shibata et al. (2002)): 20.8 L/h | CLH,u,int (whole liver) (human liver microsomes [6]; [13]): 92.00 L/h | CLint,in vitro (human liver microsomes [6]; [13]): 23.3 µL/min/mg | CLint,in vitro (human liver microsomes [6]; HLM pool of 105 donors, ref Gao et al., 2017): 14.5 µL/min/mg | Km (human liver microsomes [6]): 10 to 62 µM
